The values below come from patent US7169763B2, “Cytochrome P450 3A inhibitors and enhancers” (priority 2002, dated 2007).

Where two headings read alike, the source gives them in different places.

The conditions of series [1]: given by mouth; cited from earlier work.
Series [2] concerns CYP3A. Further details: CYP3A Activity (percentage of control): dose or concentration left out as unconfirmed.
A short description of a further series: in vivo. As to conditions: beagle, dog, po, 10 mg/kg.
Series [3] concerns CYP3A. Put plainly: Determination of CYP3A activity by erythromycin demethylation method (rat liver homogenate/microsomes). More on the design: CYP3A Activity (percentage of control): dose or concentration left out as unconfirmed. As to conditions: Table 1 Inhibition.

Turning to `CC(C)(C)c1ccc(C(O)CCCN2CCC(C(O)(c3ccccc3)c3ccccc3)CC2)cc1` (stereo not drawn) [terfenadine], the “fraction of active ingredient quickly changed to metabolites” value in series [1] is 99.5%.

For the compound `O=C/C=C/c1ccccc1` [Trans-cinnamaldehyde], the “inhibitory effects on rat liver CYP3A (in words)” value in the series on CYP3A [2] was “particularly effective”. Further, the “CYP3A Activity (percentage of control)” value in the series with CYP3A [2] (rat, 15 min, 10.22) is 30.95 ± 1.03 percentage of control.

For the compound `CCC(C)(C)C(=O)O[C@H]1C[C@@H](C)C=C2C=C[C@H](C)[C@H](CC[C@@H]3C[C@@H](O)CC(=O)O3)[C@H]21` [Simvastatin], in “in vivo”, the MRT was 2.79 h, the Tmax was 45 min and the half-life is 88.2 min.

As to `O=c1c(O[C@@H]2O[C@H](CO)[C@@H](O)[C@H](O)[C@H]2O)c(-c2ccc(O)c(O)c2)oc2cc(O)cc(O)c12` [isoquercitrin], the figures for the “CYP3A Activity (percentage of control)” value in the series with CYP3A [3] (inhibitor concentration 0.004), with CYP3A [3] (inhibitor concentration 0.04) and with CYP3A [3] (inhibitor concentration 0.2) were 64.62 ± 1.53 percentage of control, 66.83 ± 5.03 percentage of control and 51.46 ± 6.68 percentage of control, respectively.

As for `C=C[C@H]1[C@H](O[C@@H]2O[C@H](CO)[C@@H](O)[C@H](O)[C@H]2O)OC=C2C(=O)OCC[C@]21O` [swertiamarin], the results for the “CYP3A Activity (percentage of control)” value with CYP3A [3] (inhibitor concentration 0.004), in the series with CYP3A [3] (inhibitor concentration 0.04) and in the series on CYP3A [3] (inhibitor concentration 0.4) were 79.71 ± 1.76 percentage of control, 67.88 ± 0.49 percentage of control and 65.63 ± 1.29 percentage of control, respectively.

For orientation: MRT means a mean duration of stay, worked out from the concentration-time curve. The Tmax is the time at which the peak concentration occurs. As usually defined, the half-life is the time in which the quantity being followed falls by half.
